Assay results: PMC12040169 (PLOS Biology, 2025)

Assay: in vitro
Conditions: human, hela cells, % viability

| Structure (SMILES) | viability at 28.5 h, 10 µM [%] | viability at 28.5 h, 10 µM (bulk resorufin, single well) [%] |
| --- | --- | --- |
| COc1ccc(CN2CCN(C(=O)c3ccc(C#N)cc3)CC2)cc1 [CBK305698] | 99.6 |  |
| Cc1ccc(C(=O)N2CCN(Cc3cc(=O)n4ccsc4n3)CC2)cn1 [CBK305700] | 89.4 |  |
| Cc1nn(CC(=O)N(C)Cc2cnn(C)c2)c(=O)c2ccccc12 [CBK305701] | 103 |  |
| Cc1[nH]c(=O)[nH]c(=O)c1CCC(=O)N(C)CC(=O)Nc1cccc(F)c1 [CBK305703] | 99.6 |  |
| O=C(Cn1ccc(=O)[nH]c1=O)NCc1cccnc1-n1cccn1 [CBK305705] | 85 |  |
| Cc1cc(NC(=O)Cn2cc(Br)cn2)no1 [CBK305706] | 102 |  |
| Cc1cc(N2CCN(C(=O)CCc3ccsc3)CC2)nc(C(C)C)n1 [CBK305710] | 113 |  |
| CNS(=O)(=O)c1ccc(CCC(=O)N(C)Cc2cnn(C)c2)cc1 [CBK305712] | 84.9 |  |
| Cn1cc(C(=O)Nc2cccc(S(=O)(=O)N3CCCCCC3)c2)cn1 [CBK305715] | 87.2 |  |
| Cc1ccccc1CN1CCC(NC(=O)Cn2cc(Br)ccc2=O)CC1 [CBK305716] | 93.1 |  |
| N#Cc1cccc(C(=O)N2CCC(NC(=O)c3ccc(F)cc3)CC2)c1 [CBK305717] | 111 |  |
| Cc1nn(CC(C)C)c(C)c1CCC(=O)NCc1nnc2ccccn12 [CBK305719] | 88.1 |  |
| Cc1cc(CN(C)C(=O)c2cccc(NC(=O)C3CCCCC3)c2)no1 [CBK305722] | 92.6 |  |
| CN1N=C(c2ccc(N3CCOCC3)c(F)c2)CC1c1cnn(C)c1 (stereo not shown) [CBK305726] | 87.6 |  |
| O=C(Nc1ccc2nc(CN3CCOCC3)[nH]c2c1)C1CCCCC1 [CBK305728] | 80.5 |  |
| CCN(CCC(F)(F)F)C(=O)Cc1csc(NC(=O)c2ccoc2C)n1 [CBK305729] | 83.3 |  |
| CCN(Cc1ccc(C#N)cc1F)C(=O)Nc1cc(C)nn1C [CBK305730] | 94.2 |  |
| CS(=O)(=O)c1cc(Br)cc(C(=O)NCCNc2cnccn2)c1F [CBK305731] | 85.8 |  |
| CCN(CC(=O)NCc1ccc(Cl)cc1)S(=O)(=O)N1CCCCCC1 [CBK305733] | 110 |  |
| CCN(CC)C(=O)COc1ccc(NC(=O)Nc2cc(C)on2)cc1Cl [CBK305734] | 104 |  |
| CNC(=O)c1cccc(NC(=O)C(C)N(C)Cc2cnc(C)s2)c1 (stereo not shown) [CBK305735] | 81.5 |  |
| CS(=O)(=O)NCC1CCCN(C(=O)Nc2cccc(Cl)c2)C1 (stereo not shown) [CBK305736] | 79.5 |  |
| O=C(NC1CCN(CCOc2ccccc2F)CC1)c1cccs1 [CBK305737] | 96.8 |  |

| Structure (SMILES) | viability at 28.5 h, 10 µM [%] | viability at 28.5 h, 10 µM (bulk resorufin, single well) [%] |
| --- | --- | --- |
| c1ccc(N2CCC(CNCc3c[nH]nc3-c3cccnc3)C2)cc1 (stereo not shown) [CBK305738] | 88.7 |  |
| COc1ccnc(N2CCN(C(=O)C3(C#N)CCCCC3)CC2)n1 [CBK305739] | 92.2 |  |
| CC(NC(=O)c1ccc(-c2ccccc2F)s1)C(=O)N1CCCCC1 (stereo not shown) [CBK305740] | 91.3 |  |
| CC1CCc2c(C(=O)N3CCC4(CC3)NC(=O)NC4=O)csc2C1 (stereo not shown) [CBK305741] | 101 |  |
| CN(Cc1cnn(C)c1)C(=O)c1ccc(Br)cc1O [CBK305742] | 104 |  |
| CC(=O)Nc1ccc(NCc2nc(C(C)C)no2)c(C(F)(F)F)c1 [CBK305743] | 101 |  |
| CC(=O)Nc1cccc(-n2nnnc2SCC2CCCCO2)c1 (stereo not shown) [CBK305746] | 91.5 |  |
| CC1CCc2nc3ccccc3c(C(=O)N(C)Cc3cnn(C)c3)c2C1 (stereo not shown) [CBK305749] | 96.9 |  |
| CC(C)n1ncc2cc(C(=O)Nc3ncccc3O)cnc21 [CBK305751] | 109 |  |
| O=C(NC1CCS(=O)(=O)C1)c1cc2ccc(OC(F)(F)F)cc2[nH]1 (stereo not shown) [CBK305754] | 92.4 |  |
| CC1CCCN(CC(=O)NCc2ccc(OCC(N)=O)cc2)CC1 (stereo not shown) [CBK305755] | 92.1 |  |
| CN(CC(N)=O)C(=O)CCn1c(=O)oc2cc(Cl)ccc21 [CBK305757] | 94.9 |  |
| Cc1nc(CC(=O)N2CCOC(c3ccc(F)cc3)C2)cs1 (stereo not shown) [CBK305759] | 106 |  |
| Cc1cc(NC(=O)CN2CCC(CNc3ccccn3)C2)on1 (stereo not shown) [CBK305760] | 89.2 |  |
| CCN(Cc1ccco1)C(=O)NC1CCCc2c1cnn2CCO (stereo not shown) [CBK305767] | 101 |  |
| CC1CCC(C(N)=O)CN1C(=O)c1cc(Br)c[nH]1 (stereo not shown) [CBK305769] | 94 |  |
| Cn1ccc(CN2CCOC(c3nc(C(C)(C)C)cs3)C2)cc1=O (stereo not shown) [CBK305771] | 108 |  |
| Cc1nnc(CN2CCOC(c3nc(C(C)(C)C)cs3)C2)n1C (stereo not shown) [CBK305772] | 93.1 |  |
| CC1CCC(C(N)=O)CN1C(=O)c1cncc(Br)c1 (stereo not shown) [CBK305773] | 96.3 |  |
| CCC1CN(CC(=O)NCc2ccc(OCC(N)=O)cc2)CCO1 (stereo not shown) [CBK305774] | 102 |  |
| Cc1nc(C(F)(F)F)ccc1C(=O)Nc1nc(CC(N)=O)cs1 [CBK305776] | 100 |  |
| CC(C)(C)c1cnc(C(=O)NC2CCCN(c3ncccn3)C2)o1 (stereo not shown) [CBK305777] | 92.3 |  |
| O=C(CCn1cc(Br)ccc1=O)NC1CCN(Cc2ccccc2)CC1 [CBK305778] | 101 |  |

| Structure (SMILES) | viability at 28.5 h, 10 µM [%] | viability at 28.5 h, 10 µM (bulk resorufin, single well) [%] |
| --- | --- | --- |
| Cc1cc(CN(C)C(=O)Cc2csc(NC(=O)c3ccoc3C)n2)no1 [CBK305779] | 102 |  |
| CC(Oc1cccc(C#N)c1)C(=O)NCC1(N2CCOCC2)CCSC1 (stereo not shown) [CBK305780] | 94.8 |  |
| Cc1noc(C)c1CN1CCC(C(O)c2ccccc2)CC1 (stereo not shown) [CBK305783] | 93.9 |  |
| OC1CCN(CC(O)Cn2c3ccccc3c3ccccc32)CC1 (stereo not shown) [CBK305784] | 100 |  |
| Cc1nc(-c2cccnc2)[nH]c(=O)c1CC(=O)N(C)CC1CCCCC1 [CBK305785] | 91.4 |  |
| COc1ccccc1CN(C(=O)Nc1ccc(S(C)(=O)=O)cc1)C1CC1 [CBK305787] | 90.9 |  |
| COc1ccc(C)cc1-n1ccc(C(=O)NC(C)(C)C(N)=O)n1 [CBK305789] | 94.1 |  |
| CC(C)CN1CCC(NC(=O)c2csc(-c3cnn(C)c3)n2)CC1 [CBK305790] | 97.2 |  |
| Cn1cnnc1C1CCCN(C(=O)NCc2cccc(F)c2)C1 (stereo not shown) [CBK305792] | 101 |  |
| CCC1CN(C(=O)Cn2cnc3ccc(F)cc3c2=O)CCO1 (stereo not shown) [CBK305795] | 92.4 |  |
| Cc1cc(C)n(-c2ccc(CN3C(=O)NC4(CCCC4)C3=O)cc2)n1 [CBK305796] | 88.3 |  |
| CC(NS(=O)(=O)c1ccccc1Cl)C(=O)N1CCCCC1C (stereo not shown) [CBK305797] | 93.9 |  |
| COc1cccc(NC(=O)CN2CCC(NC(=O)c3cccs3)CC2)c1 [CBK305800] | 96.3 |  |
| CCC1CCCN(C(=O)Cc2c(C)nc(-c3cccnc3)[nH]c2=O)C1 (stereo not shown) [CBK305801] | 91.7 |  |
| COCCn1cc(C(=O)N(CC(N)=O)C2CCCC2)c2ccccc21 [CBK305802] |  | 84.1 |
| Cc1cccn2c(=O)cc(CN3CCC(c4cnn(C)c4)CC3)nc12 [CBK305806] | 101 |  |
| Cc1sc2[nH]c(CCC(=O)N3CCCC(C)CC3)nc(=O)c2c1C (stereo not shown) [CBK305807] | 103 |  |
| COc1ccnc(N2CCN(Cc3nnnn3C3CC3)CC2)n1 [CBK305808] | 85.6 |  |
| CC(c1ccc(F)c(F)c1)N(C)C(=O)Cn1[nH]c(=O)ccc1=O (stereo not shown) [CBK305810] | 81.2 |  |
| Cc1noc(C)c1CN1CCC(Oc2ccccc2)CC1 [CBK305811] | 89.6 |  |
| NC(=O)NC(CC(=O)N1CCc2sccc2C1)c1cccc(Br)c1 (stereo not shown) [CBK305813] | 95 |  |
| O=C(NC1CCCCC1)C1CCCN(C(=O)NCc2ccccn2)C1 (stereo not shown) [CBK305814] | 114 |  |
| CCc1nc(CN2CCN(C(=O)Nc3ccccc3C)CC2)cs1 [CBK305817] | 87.5 |  |

| Structure (SMILES) | viability at 28.5 h, 10 µM [%] | viability at 28.5 h, 10 µM (bulk resorufin, single well) [%] |
| --- | --- | --- |
| c1ccc(C(NCc2nnc(-c3ccco3)o2)C2CCC2)cc1 (stereo not shown) [CBK305818] | 84.7 |  |
| CC(NC(=O)CCC1CCCC1)c1nc(-c2ccncc2)cs1 (stereo not shown) [CBK305819] | 86.9 |  |
| CCOC(=O)c1cccc(S(=O)(=O)NC(C)Cn2cncn2)c1 (stereo not shown) [CBK305820] | 95.9 |  |
| CN(C)CC1CN(c2nc(-c3ccncc3)nc3c2CCC3)CCO1 (stereo not shown) [CBK305824] | 83 |  |
| Cc1cccc(OCCNC(=O)CN2CCCC2c2cnn(C)c2)c1 (stereo not shown) [CBK305826] | 81 |  |
| CC1CCCCC12NC(=O)N(Cc1csc(-c3cccs3)n1)C2=O (stereo not shown) [CBK305829] | 98.4 |  |
| Cc1sc2ncn(CC(=O)NCCCN3CCCCC3)c(=O)c2c1C [CBK305831] | 96.7 |  |
| CCC1CCCCN1C(=O)Cn1cnc2c(Cl)cc(Cl)cc2c1=O (stereo not shown) [CBK305833] | 90 |  |
| CCN(CC(=O)NCc1ccc(Cl)cc1)S(=O)(=O)c1ccc(OC)cc1 [CBK305836] | 92.6 |  |
| COc1ccccc1CN(C)C(C)C(=O)Nc1ccc(S(N)(=O)=O)cc1 (stereo not shown) [CBK305839] | 90.1 |  |
| CC(C(=O)Nc1ccc(S(N)(=O)=O)cc1)N(C)Cc1ccccc1F (stereo not shown) [CBK305840] | 105 |  |
| CCN(CC(=O)NCc1ccc(F)cc1)S(=O)(=O)c1ccccc1C#N [CBK305842] | 91.1 |  |
| CCCn1c(SCC(=O)N2CCc3ccccc32)nc(O)cc1=O [CBK305843] | 95.4 |  |
| CCn1cc(C(=O)N2CCC(C(=O)OC)CC2)c(=O)c2ccc(C)nc21 [CBK305848] | 110 |  |
| CCN(CC(=O)NC(C)C)Cc1csc(-c2ccc(F)cc2)n1 [CBK305849] | 117 |  |
| COCCn1c(SCC(=O)N2CCNC2=O)nc2ccccc21 [CBK305851] | 97.3 |  |
| Cc1cc(C)n(CCCNC(=O)Cn2cnc3sc(C)c(C)c3c2=O)n1 [CBK305852] | 76.2 |  |
| Cc1ccnc2nc(C(=O)OCC(=O)Nc3ccc4c(c3)CCC4)nn12 [CBK305853] | 82.1 |  |
| CCCC(=O)Nc1ccc(-c2csc(NC(=O)C3CCCO3)n2)cc1 (stereo not shown) [CBK305854] | 77.8 |  |
| Cc1ccccc1Nc1nc(N)nc(CN2CC(C)OC(C)C2)n1 (stereo not shown) [CBK305856] | 105 |  |
| O=C(CSc1nnnn1C1CC1)Nc1ccc(CN2CCOCC2)cc1 [CBK305857] | 99.2 |  |
| O=C1NC2(CCCCCC2)C(=O)N1Cc1coc(-c2cccs2)n1 [CBK305858] | 94.2 |  |
